The values below come from patent US9006464B2, “Substituted cyclopentanes having prostaglandin activity” (Allergan, Inc., priority 2007, dated 2015).

The EC50 is the concentration that produces a half-maximal response. A lower EC50 goes with greater potency. The term Ki denotes the dissociation constant of the complex between target and ligand, obtained from inhibition or displacement. Read a low Ki as tighter binding.

The target of assay [1] is T1, EP2 (Homo sapiens, UniProt P43116). Description: EP2 Ca2+ signal assay. It is filed as cell-based. From the text:
(§1) U.S. patent application Ser. No. 11/553,143, filed on Oct. 26, 2006, incorporated by reference herein, describes the methods used to obtain the in vitro data in Table 1 below.

The next assay has as its target T2, EP1 (Homo sapiens, UniProt P34995).
T2 sequence (P34995 1-402): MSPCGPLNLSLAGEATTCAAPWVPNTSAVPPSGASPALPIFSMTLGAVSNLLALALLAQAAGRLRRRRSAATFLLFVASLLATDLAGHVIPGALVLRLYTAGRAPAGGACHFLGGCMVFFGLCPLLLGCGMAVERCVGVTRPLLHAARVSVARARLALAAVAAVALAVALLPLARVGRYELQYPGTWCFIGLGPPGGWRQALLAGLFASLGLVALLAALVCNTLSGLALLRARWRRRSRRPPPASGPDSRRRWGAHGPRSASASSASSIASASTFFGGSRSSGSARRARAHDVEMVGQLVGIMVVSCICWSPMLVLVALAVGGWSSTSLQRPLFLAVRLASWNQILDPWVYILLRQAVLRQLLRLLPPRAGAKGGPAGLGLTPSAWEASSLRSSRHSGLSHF
The experiment in a line: Other receptors Ca2+ assay, EP1. It is filed as cell-based. Particulars: EP1 receptor.
Text: as §1

Assay [2] deals with T1, EP2. The experiment in a line: EP2 cAMP assay. It is filed as cell-based.
Text: as §1

The target in the next assay is T3, DP (Homo sapiens, UniProt Q13258).
T3 sequence (Q13258 1-359): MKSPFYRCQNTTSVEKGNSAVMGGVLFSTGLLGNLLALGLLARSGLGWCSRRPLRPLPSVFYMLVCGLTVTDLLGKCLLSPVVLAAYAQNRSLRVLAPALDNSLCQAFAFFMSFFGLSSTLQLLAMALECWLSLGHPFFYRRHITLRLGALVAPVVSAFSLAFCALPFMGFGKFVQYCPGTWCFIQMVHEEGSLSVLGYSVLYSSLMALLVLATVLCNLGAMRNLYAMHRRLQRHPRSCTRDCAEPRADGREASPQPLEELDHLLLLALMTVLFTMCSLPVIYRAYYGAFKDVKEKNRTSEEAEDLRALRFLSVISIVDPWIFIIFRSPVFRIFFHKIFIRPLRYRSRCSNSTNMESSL
Description: Other receptors Ca2+ assay, DP. It is filed as cell-based. As to conditions: DP receptor.
Text: as §1

Assay [3] has as its target T1, EP2. The experiment in a line: EP2 binding (Ki).
Text: as §1

Assay [4] has as its target T4, EP4 (Homo sapiens, UniProt P35408). Description: EP4 binding (Ki).
Text: as §1

In another assay the target is T5, EP3 (Homo sapiens, UniProt P43115).
T5 sequence (P43115 1-390): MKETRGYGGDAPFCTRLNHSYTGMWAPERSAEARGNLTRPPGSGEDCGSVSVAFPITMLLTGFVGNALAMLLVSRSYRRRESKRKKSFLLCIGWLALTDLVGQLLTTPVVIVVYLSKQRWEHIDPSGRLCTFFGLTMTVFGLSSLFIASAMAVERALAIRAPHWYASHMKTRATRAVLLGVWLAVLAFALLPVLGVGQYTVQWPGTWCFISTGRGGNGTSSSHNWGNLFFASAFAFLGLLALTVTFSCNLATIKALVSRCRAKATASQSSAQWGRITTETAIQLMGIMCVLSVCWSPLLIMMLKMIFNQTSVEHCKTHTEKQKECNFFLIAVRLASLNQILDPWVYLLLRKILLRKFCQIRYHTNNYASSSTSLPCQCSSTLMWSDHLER
Description: Other receptors Ca2+ assay, EP3. It is filed as cell-based. Particulars: EP3 receptor.
Text: as §1

Assay [5] concerns the target T4, EP4. Description: EP4 Ca2+ signal assay. It is filed as cell-based.
Text: as §1

In a further assay the target is T6, TP (Homo sapiens, UniProt P21731).
T6 sequence (P21731 1-343): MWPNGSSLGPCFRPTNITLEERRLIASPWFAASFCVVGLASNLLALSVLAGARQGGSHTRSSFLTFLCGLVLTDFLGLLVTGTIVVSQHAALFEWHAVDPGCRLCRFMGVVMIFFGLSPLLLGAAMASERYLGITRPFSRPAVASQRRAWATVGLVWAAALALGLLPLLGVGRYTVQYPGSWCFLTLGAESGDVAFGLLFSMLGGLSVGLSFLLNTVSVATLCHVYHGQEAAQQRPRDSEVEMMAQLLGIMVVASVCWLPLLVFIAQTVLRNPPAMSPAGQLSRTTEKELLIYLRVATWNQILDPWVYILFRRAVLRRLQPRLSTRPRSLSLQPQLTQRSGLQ
Description: Other receptors Ca2+ assay, TP. It is filed as cell-based. As to conditions: TP receptor.
Text: as §1

SMILES strings stand for the structures.

T4 sequence (P35408 whole entry): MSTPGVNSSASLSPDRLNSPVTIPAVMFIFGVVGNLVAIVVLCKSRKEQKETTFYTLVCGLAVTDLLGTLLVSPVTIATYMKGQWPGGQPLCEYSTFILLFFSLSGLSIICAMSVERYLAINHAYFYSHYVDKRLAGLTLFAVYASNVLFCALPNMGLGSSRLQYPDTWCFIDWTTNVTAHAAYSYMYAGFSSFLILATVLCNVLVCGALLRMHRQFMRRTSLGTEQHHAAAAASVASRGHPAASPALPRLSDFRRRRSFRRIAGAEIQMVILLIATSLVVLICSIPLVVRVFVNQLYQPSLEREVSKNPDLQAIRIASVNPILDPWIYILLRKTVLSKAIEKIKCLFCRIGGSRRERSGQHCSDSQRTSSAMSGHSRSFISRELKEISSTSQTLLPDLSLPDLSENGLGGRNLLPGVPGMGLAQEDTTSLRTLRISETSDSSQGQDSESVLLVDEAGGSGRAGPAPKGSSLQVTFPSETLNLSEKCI
T1 sequence (P43116 whole entry): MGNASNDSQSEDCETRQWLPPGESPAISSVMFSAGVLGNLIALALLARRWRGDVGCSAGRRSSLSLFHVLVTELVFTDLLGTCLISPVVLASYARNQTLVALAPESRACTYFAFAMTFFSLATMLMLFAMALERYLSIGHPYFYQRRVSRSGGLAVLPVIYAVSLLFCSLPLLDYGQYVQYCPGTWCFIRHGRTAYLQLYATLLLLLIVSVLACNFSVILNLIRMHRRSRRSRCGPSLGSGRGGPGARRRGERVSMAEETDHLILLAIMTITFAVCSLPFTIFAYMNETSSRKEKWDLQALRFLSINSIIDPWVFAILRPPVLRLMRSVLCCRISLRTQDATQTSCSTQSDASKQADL

Turning to `CCCCCC(O)/C=C/[C@@H]1[C@@H](CCCc2ccc(C(=O)O)s2)[C@H](Cl)C[C@H]1O` (single isomer, unassigned) [Entry 16], the EC50 on EP2 [1] was determined as 26 nM; at EP1 it was 86 nM; at EP2 [2], 5 nM; at DP, 7730 nM; at EP3 it was 421 nM; on EP4 [5] it was 42 nM. In addition, the inhibition constant Ki on EP2 [3] came out at 202 nM; at EP4 [4], 577 nM.
As to `CCCCC[C@@H]1[C@@H](CCCc2ccc(C(=O)O)s2)[C@H](Cl)C[C@H]1O` [Entry 1, 5-[3-((1R,2R,3R,5R)-5-Chloro-3-hydroxy-2-pentyl-cyclopentyl)-propyl]-thiophene-2-carboxylic acid], the EC50 on EP2 [1] stood at 74 nM; on TP it was 187 nM; on EP2 [2], 1 nM; at DP, 2080 nM; on EP3, 1740 nM; at EP4 [5], 9100 nM. Also, the Ki on EP2 [3] was determined as 6 nM.
Regarding `CCCCCC[C@@H]1[C@@H](CCCc2ccc(C(=O)O)s2)[C@H](Cl)C[C@H]1O` [Entry 2, 5-[3-((1R,2R,3R,5R)-5-Chloro-2-hexyl-3-hydroxy-cyclopentyl)-propyl]-thiophene-2-carboxylic acid], the concentration for a half-maximal effect (EC50) stood at 405 nM on EP2 [1]; 2990 nM at TP; 0.7 nM at EP2 [2]; 1780 nM on DP; 5990 nM on EP3; 9380 nM on EP4 [5]. Further, the figures for the Ki at EP2 [3] and at EP4 [4] were 4 nM and 754 nM, respectively.
As for `CCCCCCCCC[C@@H]1[C@@H](CCCc2ccc(C(=O)O)s2)[C@H](Cl)C[C@H]1O` [Entry 5, 5-[3-((1R,2R,3R,5R)-5-Chloro-3-hydroxy-2-nonyl-cyclopentyl)-propyl]-thiophene-2-carboxylic acid], the EC50 on EP2 [1] was 21 nM; at EP2 [2], 3 nM; at EP3, 6660 nM; on EP4 [5], over 10000 nM. The Ki was determined as 1.5 nM on EP2 [3] and 1230 nM at EP4 [4].
Turning to `O=C(O)c1ccc(CCC[C@@H]2[C@@H](C=CCCCCCCO)[C@H](O)C[C@H]2Cl)s1` [Entry 6, 5-{3-[(1R,2R,3R,5R)-5-Chloro-3-hydroxy-2-(8-hydroxy-oct-1-enyl)-cyclopentyl]-propyl}-thiophene-2-carboxylic acid], the EC50 is 531 nM at EP2 [1], over 10000 nM on EP1, 14 nM at EP2 [2] and 1000 nM on DP. This molecule showed a Ki on EP2 [3] of 37 nM.
For the molecule `CCCC=C[C@@H]1[C@@H](CCCc2ccc(C(=O)O)s2)[C@H](Cl)C[C@H]1O` [Entry 7, 5-[3-((1R,2R,3R,5R)-5-Chloro-3-hydroxy-2-pent-1-enyl-cyclopentyl)-propyl]-thiophene-2-carboxylic acid], the EC50 on EP2 [1] was 303 nM; at TP, 249 nM; at EP2 [2], 55 nM; on DP, 573 nM; at EP3, 1160 nM; at EP4 [5], 14800 nM. The same molecule yielded a Ki at EP2 [3] of 60 nM.
Consider `CCCCCC=C[C@@H]1[C@@H](CCCc2ccc(C(=O)O)s2)[C@H](Cl)C[C@H]1O` [Entry 8, 5-[3-((1R,2R,3R,5R)-5-Chloro-2-hept-1-enyl-3-hydroxy-cyclopentyl)-propyl]-thiophene-2-carboxylic acid], for which the 50% effective concentration (EC50) at EP2 [1] amounted to 112 nM; at TP, 230 nM; at EP2 [2] it was 8 nM; on DP, 337 nM; at EP3, 544 nM; at EP4 [5] it was 9100 nM. Moreover, the Ki amounted to 14 nM at EP2 [3] and 186 nM at EP4 [4].
In the case of `CCCCCCCCC=C[C@@H]1[C@@H](CCCc2ccc(C(=O)O)s2)[C@H](Cl)C[C@H]1O` [Entry 9, 5-[3-((1R,2R,3R,5R)-5-Chloro-2-dec-1-enyl-3-hydroxy-cyclopentyl)-propyl]-thiophene-2-carboxylic acid], the EC50 was 512 nM at EP2 [1], 15 nM at EP2 [2], 10500 nM on DP and 34200 nM at EP4 [5]. Further, the results for the Ki at EP2 [3] and on EP4 [4] were 18 nM and 695 nM, respectively.
Turning to `O=C(O)c1ccc(CCC[C@@H]2[C@@H](CCCCCCCCO)[C@H](O)C[C@H]2Cl)s1` [Entry 10, 5-{3-[(1R,2R,3R,5R)-5-Chloro-3-hydroxy-2-(8-hydroxy-octyl)-cyclopentyl]-propyl}-thiophene-2-carboxylic acid], the concentration giving a half-maximal response (EC50) at EP2 [1] was 69 nM; on EP2 [2] it was under 1 nM; on DP it was 6130 nM; on EP4 [5], over 10000 nM. At EP2 [3], this molecule registered a Ki of 5 nM.
Turning to `O=C(O)c1ccc(CCC[C@@H]2[C@@H](CCCCCCCO)[C@H](O)C[C@H]2Cl)s1` [Entry 11, 5-{3-[(1R,2R,3R,5R)-5-Chloro-3-hydroxy-2-(7-hydroxy-heptyl)-cyclopentyl]-propyl}-thiophene-2-carboxylic acid], the EC50 on EP2 [1] was 10 nM; at EP2 [2], 0.3 nM; on DP, 1950 nM; on EP4 [5], 23700 nM. The values for the Ki on EP2 [3] and at EP4 [4] were 9 nM and 1520 nM, respectively.
For `O=C(O)c1ccc(CCC[C@@H]2[C@@H](C=CCCCCCO)[C@H](O)C[C@H]2Cl)s1` [Entry 13, 5-{3-[(1R,2R,3R,5R)-5-Chloro-3-hydroxy-2-(7-hydroxy-hept-1-enyl)-cyclopentyl]-propyl}-thiophene-2-carboxylic acid], the EC50 on EP2 [1] was 46 nM; on EP2 [2], 3.6 nM; on DP it was 253 nM; at EP4 [5] it was 31400 nM. Further, the inhibition constant (Ki) at EP2 [3] stood at 60 nM; on EP4 [4], 2390 nM.
Turning to `CCCCCCCC=C[C@@H]1[C@@H](CCCc2ccc(C(=O)O)s2)[C@H](Cl)C[C@H]1O` [Entry 14, 5-[3-((1R,2R,3R,5R)-5-Chloro-3-hydroxy-2-non-1-enyl-cyclopentyl)-propyl]-thiophene-2-carboxylic acid], the EC50 on EP2 [1] was 15 nM; on EP2 [2] it was 4 nM; at DP, 11700 nM; at EP3, 3000 nM; at EP4 [5] it was over 10000 nM. The figures for the Ki on EP2 [3] and on EP4 [4] were 6 nM and 1110 nM, respectively.
Turning to `CCCC/C=C/CC[C@@H]1[C@@H](CCCc2ccc(C(=O)O)s2)[C@H](Cl)C[C@H]1O` [Entry 18, 5-(3-((1R,2R,3R,5R)-5-chloro-3-hydroxy-2-((E)-oct-3-enyl)cyclopentyl)propyl)thiophene-2-carboxylic acid], the EC50 worked out at 51 nM on EP2 [1]; 4930 nM on EP1; 2 nM at EP2 [2]; 2800 nM at DP; 593 nM at EP3; 713 nM on EP4 [5]. The inhibition constant (Ki) at EP2 [3] was 18 nM.
Consider `CCCCCCCCCC[C@@H]1[C@@H](CCCc2ccc(C(=O)O)s2)[C@H](Cl)C[C@H]1O` [Entry 19, 5-(3-((1R,2R,3R,5R)-5-chloro-2-decyl-3-hydroxycyclopentyl)propyl)thiophene-2-carboxylic acid], for which the half-maximal effective concentration (EC50) at EP2 [1] is 1160 nM; on EP2 [2], 2 nM; on EP4 [5], over 10000 nM. The results for the inhibition constant (Ki) on EP2 [3] and at EP4 [4] were 6 nM and 7100 nM, respectively.
